The text below walks through data of ChEMBL document CHEMBL5303573, “Mapping human microbiome drug metabolism by gut bacteria and their genes” (Nature, 2019).

A short description of data set [1]: The drug is tested on Bifidobacterium breve strain: DSM20213 for biotransformation. The drug concentrations were measured before and after a 12-h incubation by liquid-chromatography-coupled mass spectrometry (LC–MS). The conditions noted are these: 2 µM.
Data set [2] is described as follows: The drug is tested on Bacteroides fragilis strain: HMW610 for biotransformation. The drug concentrations were measured before and after a 12-h incubation by liquid-chromatography-coupled mass spectrometry (LC–MS). The conditions noted are these: 2 µM.
Data set [3] can be described thus: The drug is tested on Bacteroides fragilis strain: HMW615 for biotransformation. The drug concentrations were measured before and after a 12-h incubation by liquid-chromatography-coupled mass spectrometry (LC–MS). The note with it: 2 µM.
A short description of data set [4]: The drug is tested on Bacteroides sp. WH2 strain: WH2 for biotransformation. The drug concentrations were measured before and after a 12-h incubation by liquid-chromatography-coupled mass spectrometry (LC–MS). The note with it: bacteroides sp. wh2, 12 h, 2 µM.
Data set [5] can be described thus: The drug is tested on Bacteroides xylanisolvens strain: DSM18836 for biotransformation. The drug concentrations were measured before and after a 12-h incubation by liquid-chromatography-coupled mass spectrometry (LC–MS). The conditions noted are these: 2 µM.
Data set [6] in a line: The drug is tested on Anaerotruncus colihominis strain: DSM17241 for biotransformation. The drug concentrations were measured before and after a 12-h incubation by liquid-chromatography-coupled mass spectrometry (LC–MS). The conditions noted are these: 2 µM.
Data set [7] in a line: The drug is tested on Blautia luti strain: DSM14534 for biotransformation. The drug concentrations were measured before and after a 12-h incubation by liquid-chromatography-coupled mass spectrometry (LC–MS). The format is ADME. The note with it: 2 µM. The arrangement: dose 2 uM, timepoint 0 vs 12 hours.
Data set [8] is described as follows: The drug is tested on Clostridium ramosum strain: DSM1402 for biotransformation. The drug concentrations were measured before and after a 12-h incubation by liquid-chromatography-coupled mass spectrometry (LC–MS). The conditions noted are these: thomasclavelia ramosa, 2 µM.
The nature of data set [9]: The drug is tested on Clostridium sporogenes strain: ATCC15579 for biotransformation. The drug concentrations were measured before and after a 12-h incubation by liquid-chromatography-coupled mass spectrometry (LC–MS). The note with it: 2 µM.
Data set [10] in a line: The drug is tested on Dorea formicigenerans strain: ATCC27755 for biotransformation. The drug concentrations were measured before and after a 12-h incubation by liquid-chromatography-coupled mass spectrometry (LC–MS). The note with it: 2 µM.
Data set [11] is described as follows: The drug is tested on Eubacterium ventriosum strain: ATCC27560 for biotransformation. The drug concentrations were measured before and after a 12-h incubation by liquid-chromatography-coupled mass spectrometry (LC–MS). Type of data set: ADME. The arrangement: dose 2 uM, timepoint 0 vs 12 hours. The conditions noted are these: 2 µM.
The nature of data set [12]: The drug is tested on Ruminococcus gnavus strain: ATCC29149 for biotransformation. The drug concentrations were measured before and after a 12-h incubation by liquid-chromatography-coupled mass spectrometry (LC–MS). The note with it: mediterraneibacter gnavus, 2 µM.
Data set [13] can be described thus: The drug is tested on Ruminococcus torques strain: ATCC27756 for biotransformation. The drug concentrations were measured before and after a 12-h incubation by liquid-chromatography-coupled mass spectrometry (LC–MS). Type of data set: ADME. On the set-up: dose 2 uM, timepoint 0 vs 12 hours. The conditions noted are these: 2 µM.
The nature of data set [14]: The drug is tested on Edwardsiella tarda strain: ATCC23685 for biotransformation. The drug concentrations were measured before and after a 12-h incubation by liquid-chromatography-coupled mass spectrometry (LC–MS). The conditions noted are these: 2 µM.
The conditions of data set [15]: bacteroides intestinalis, 12 h, 2 µM.
Description: The drug is tested on Bacteroides intestinalis strain: DSM17393 for biotransformation. The drug concentrations were measured before and after a 12-h incubation by liquid-chromatography-coupled mass spectrometry (LC–MS)
The conditions of data set [16]: bacteroides thetaiotaomicron, 12 h, 2 µM.
Description: The drug is tested on Bacteroides thetaiotaomicron strain: 3731 for biotransformation. The drug concentrations were measured before and after a 12-h incubation by liquid-chromatography-coupled mass spectrometry (LC–MS)
The conditions of data set [17]: limosilactobacillus reuteri cf48-3a, 12 h, 2 µM.
Description: The drug is tested on Lactobacillus reuteri CF48-3A strain: BEI HM-102 for biotransformation. The drug concentrations were measured before and after a 12-h incubation by liquid-chromatography-coupled mass spectrometry (LC–MS)
For data set [18] the following is noted: roseburia intestinalis, 12 h, 2 µM.
Description: The drug is tested on Roseburia intestinalis strain: L1-82 for biotransformation. The drug concentrations were measured before and after a 12-h incubation by liquid-chromatography-coupled mass spectrometry (LC–MS)
Data set [19] can be described thus: The drug is tested on Ruminococcus lactaris strain: ATCC29176 for biotransformation. The drug concentrations were measured before and after a 12-h incubation by liquid-chromatography-coupled mass spectrometry (LC–MS). The note with it: 2 µM.

In the case of `CN1CCc2c(c3ccccc3n2Cc2ccccc2)C1.CN1CCc2c(c3ccccc3n2Cc2ccccc2)C1.O=S(=O)(O)c1cccc2c(S(=O)(=O)O)cccc12`, the “Bacterial Biotransformation” value in [1], in data set [2], in [3], in data set [4], in data set [5] and in data set [6] was “Compound NOT metabolized” throughout. For the same compound, the “Bacterial Biotransformation” value in data set [7], in data set [8], in data set [9], in data set [10], in data set [11] and in data set [12] was “Compound NOT metabolized” each time. In addition, the “Bacterial Biotransformation” value in [13], in data set [14], in data set [15], in data set [16], in data set [17] and in [18] was “Compound NOT metabolized” throughout.
Turning to `O=C(Nc1ccccc1)OCC(CN1CCCCC1)OC(=O)Nc1ccccc1` (centres undefined) [DIPERODON], the “Bacterial Biotransformation” value in data set [1], in [2], in [3], in data set [4], in [5] and in data set [6] was “Compound NOT metabolized” throughout. In addition, the “Bacterial Biotransformation” value in data set [7], in data set [8], in [9], in data set [10], in data set [11] and in data set [12] was “Compound NOT metabolized” throughout. The “Bacterial Biotransformation” value in [19], in data set [13], in [14], in data set [15], in data set [16] and in data set [17] was “Compound NOT metabolized” throughout. In addition, the “Bacterial Biotransformation” value in [18] is “Compound NOT metabolized”.
With `CN(C)CCOC(C)(c1ccccc1)c1ccccn1.O=C(O)CCC(=O)O` (centres undefined) [DOXYLAMINE SUCCINATE], the “Bacterial Biotransformation” value in data set [1], in [2], in data set [3], in [4], in [5] and in data set [6] was “Compound NOT metabolized” throughout. The “Bacterial Biotransformation” value in data set [7], in data set [8], in data set [9], in data set [10], in data set [11] and in data set [12] was “Compound NOT metabolized” in each case. The “Bacterial Biotransformation” value in data set [19], in [13], in [14], in data set [15], in [16] and in data set [17] was “Compound NOT metabolized” each time. Besides, in data set [18], the “Bacterial Biotransformation” value was “Compound NOT metabolized”.
Take `COc1ccccc1OCC(O)COC(N)=O` (centres undefined) [METHOCARBAMOL]: the “Bacterial Biotransformation” value in [1], in data set [2], in data set [3], in data set [4], in data set [5] and in data set [6] was “Compound NOT metabolized” each time. For the same compound, the “Bacterial Biotransformation” value in data set [7], in data set [8], in [9], in data set [10], in [11] and in data set [12] was “Compound NOT metabolized” each time. Further, the “Bacterial Biotransformation” value in data set [13], in data set [14], in data set [15], in data set [16], in data set [17] and in [18] was “Compound NOT metabolized” in each case.
As for `C#C[C@]1(OC(C)=O)CC[C@H]2[C@@H]3CCC4=CC(=O)CC[C@@H]4[C@H]3CC[C@@]21C` [NORETHINDRONE ACETATE], the “Bacterial Biotransformation” value in data set [1] is recorded as “Compound NOT metabolized”; in [2], “Compound metabolized”; in data set [3], “Compound metabolized”; in [4] it was “Compound metabolized”; in [5], “Compound metabolized”; in data set [6], “Compound metabolized”. For the same compound, the “Bacterial Biotransformation” value in [7] is recorded as “Compound metabolized”; in data set [8], “Compound NOT metabolized”; in [9] it was “Compound metabolized”; in [10], “Compound NOT metabolized”; in [11] it was “Compound metabolized”; in data set [12], “Compound metabolized”. The “Bacterial Biotransformation” value in data set [13] is “Compound metabolized”; in data set [14] it was “Compound NOT metabolized”; in data set [15], “Compound metabolized”; in data set [16], “Compound metabolized”; in data set [17], “Compound NOT metabolized”.
On to `Cc1cc2c(s1)Nc1ccccc1N=C2N1CCN(C)CC1` [OLANZAPINE], for which the “Bacterial Biotransformation” value in data set [1] is on record as “Compound NOT metabolized”; in [2], “Compound metabolized”; in data set [3], “Compound metabolized”; in data set [5], “Compound NOT metabolized”; in data set [6] it was “Compound NOT metabolized”; in data set [7], “Compound NOT metabolized”. The “Bacterial Biotransformation” value in data set [8], in data set [9], in data set [10], in [11], in data set [12] and in [19] was “Compound NOT metabolized” in each case. Also, the “Bacterial Biotransformation” value in data set [13], in data set [14], in [15], in data set [16], in data set [17] and in [18] was “Compound NOT metabolized” each time.
